Assay results from paper PMC4920105, “Identification and Development of 2,3-Dihydropyrrolo[1,2-a]quinazolin-5(1H)-one Inhibitors Targeting Bromodomains within the Switch/Sucrose Nonfermenting Complex” (Journal of Medicinal Chemistry, 2016).
Values joined by “and” are separate entries in the source; they are usually repeats but may differ in a detail not shown here. Equal entries are not always repeated.

Legend:
PB1(5) [1] = biological target: T1, PB1(5) (Homo sapiens, UniProt Q86U86); test: DSF Tm shift assay, PB1(5) bromodomain; assay type: binding; conditions: for PB1(5) Tm (Supplementary Table 2): average of three replicates and standard deviation
T1 construct: the fifth bromodomain of PB1 (PB1(5)); made in house

BRD9A = biological target: T2, BRD9A (Homo sapiens, UniProt Q9H8M2); test: DSF Tm shift assay, BRD9A; assay type: binding; conditions: single measurement
T2 construct: Bromodomain DSF Tm assays were performed; made in house
T2 sequence (Q9H8M2 136-240 limits assumed): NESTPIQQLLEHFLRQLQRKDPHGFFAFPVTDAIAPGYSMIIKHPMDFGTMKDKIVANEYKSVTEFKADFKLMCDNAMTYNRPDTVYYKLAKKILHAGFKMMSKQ
Description: (§1) Protein Expression and Purification.
(§2) Proteins were cloned, expressed, and purified as previously described.1 […]
(§3) Bromodomain DSF Tm assays were performed using a Mx3005p real-time PCR machine (Agilent) and low profile 96-well PCR plates (AB-0700, Life Technologies). Protein was buffered in 10 mM HEPES, pH 7.5, 500 mM NaCl and assayed at a concentration of 2 µM with 10 µM inhibitor concentration and 1:1000 SyproOrange (Invitrogen). Excitation and emission filters were set to 465 and 590 nm respectively. The temperature was raised by 3 °C per 1 min from 25–95 °C, and fluorescence readers were taken at each interval. Data analysis was carried out as described previously.2
(§4) AlphaScreen Displacement Assay.
(§5) AlphaScreen assays were based on a reported protocol, with minor variations.3 In place of a biotinylated peptide, a biotinylated ligand was used at 25 nM final concentration.
(§6) Isothermal Calorimetry Experiments.
(§7) Calorimetric experiments were performed on a VP-ITC micro-calorimeter (MicroCalTM, LLC Northampton, MA). Protein solutions were buffer exchanged by dialysis into buffer 20 mM Hepes pH 7.5, 150 mM NaCl, and 0.5 mM TCEP. All measurements were carried out at 293.15 K while stirring at 286 rpm. The micro syringe was loaded with protein solutions ranging from […]

BRPF1B = biological target: T3, BRPF1B (Homo sapiens, UniProt P55201); test: DSF Tm shift assay, BRPF1B; assay type: binding; conditions: single measurement
T3 construct: Bromodomain DSF Tm assays were performed; made in house
T3 sequence (P55201 628-732 limits assumed): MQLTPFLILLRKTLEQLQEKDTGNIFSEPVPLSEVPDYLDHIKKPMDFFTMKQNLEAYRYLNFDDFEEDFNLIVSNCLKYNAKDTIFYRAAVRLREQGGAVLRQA
Description: as §1, §2, §3, §4, §5, §6, §7

CECR2A = biological target: T4, CECR2A (Homo sapiens, UniProt Q9BXF3); test: DSF Tm shift assay, CECR2A; assay type: binding; conditions: single measurement
T4 construct: Bromodomain DSF Tm assays were performed; made in house
Description: as §1, §2, §3, §4, §5, §6, §7

PB1(5) [2] = biological target: T1, PB1(5); test: Isothermal calorimetry (ITC), PB1(5) bromodomain; assay type: binding; conditions: for K × 10^6 (M^–1): 293.15 K
BRD4(1) = biological target: T5, BRD4(1) (Homo sapiens, UniProt O60885); test: DSF Tm shift assay, BRD4(1); assay type: binding; conditions: 10 μM, single measurement
T5 construct: representative bromodomains (PCAF, BRD4(1), CREBBP, TRIM33B) from other subfamilies using DSF; made in house
Description: as §1, §2, §3, §4, §5, §6, §7

CREBBP = biological target: T6, CREBBP (Homo sapiens, UniProt Q92793); test: DSF Tm shift assay, CREBBP; assay type: binding; conditions: 10 μM, single measurement
T6 construct: representative bromodomains (PCAF, BRD4(1), CREBBP, TRIM33B) from other subfamilies using DSF; made in house
Description: as §1, §2, §3, §4, §5, §6, §7

TRIM33B = biological target: T7, TRIM33B (Homo sapiens, UniProt Q9UPN9); test: DSF Tm shift assay, TRIM33B; assay type: binding; conditions: 10 μM, single measurement
T7 construct: representative bromodomains (PCAF, BRD4(1), CREBBP, TRIM33B) from other subfamilies using DSF; made in house
T7 sequence (Q9UPN9 957-1063 isoform Q9UPN9-2 limits assumed): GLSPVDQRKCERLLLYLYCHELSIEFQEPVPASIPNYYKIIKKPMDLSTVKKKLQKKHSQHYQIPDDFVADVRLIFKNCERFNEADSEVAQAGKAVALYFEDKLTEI
Description: as §1, §2, §3, §4, §5, §6, §7

Solubility (qualitative) = assay type: physicochemical; conditions: chlorinated derivatives
SMARCA4 = SMARCA4 (Homo sapiens, UniProt P51532); test: Isothermal calorimetry (ITC), SMARCA4; assay type: binding
[3] = Aqueous stability by 1H NMR in D2O time course; assay type: physicochemical
Source text: Compounds were synthesized by the routes shown in Scheme 1. Amidation of 2-aminobenzamide 2 with 4-chlorobutanoyl chloride[29] gave amide 3, which could be cyclized to the 2,3-dihydropyrrolo[1,2-a]quinazolin-5(1H)-one core 4 using potassium tert-butoxide. The isomer was confirmed on the basis of NOE correlations and subsequent crystallography. The weak nucleophilicity of the core was then exploited by reacting compound 4 with substituted N,N-dialkylformamides using Vilsmeier–Haack conditions, giving analogues incorporating nitrogen-based aliphatic side chains solely as the E regioisomer. This chemistry was unsuitable for piperazine-based formamides. For these side chains, analogues 12–15 were synthesized as single regioisomers by displacement of the dimethylamino group in 5 using cyclic secondary amines and DMAP catalysis. Due to the potential for hydrolysis of the enamine-like moiety, the aqueous stability of 5 was assessed by ^1H NMR in a D2O time course experiment and was stable for >24 h. […] Their binding to PB1(5) was assessed by the operationally simple DSF assay (Table 1). […] Six-membered aliphatic rings (10–14) were better tolerated than analogues containing six-membered aromatic side chains (see Supporting Information), likely due to their greater flexibility. However, expansion to a seven-membered ring reduced activity.

[4] = 10 μM inhibitor, average of three replicates

T1 sequence (Q86U86 653-774): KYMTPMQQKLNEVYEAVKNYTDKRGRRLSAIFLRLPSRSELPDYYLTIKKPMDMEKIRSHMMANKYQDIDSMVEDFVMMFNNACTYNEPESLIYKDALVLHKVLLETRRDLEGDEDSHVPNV
T4 sequence (Q9BXF3 434-538 limits assumed): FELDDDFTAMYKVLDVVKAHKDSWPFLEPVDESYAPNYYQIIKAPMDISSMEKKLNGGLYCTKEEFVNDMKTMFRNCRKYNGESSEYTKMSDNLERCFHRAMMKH
SMARCA4, sequence (P51532 1453-1564 limits assumed): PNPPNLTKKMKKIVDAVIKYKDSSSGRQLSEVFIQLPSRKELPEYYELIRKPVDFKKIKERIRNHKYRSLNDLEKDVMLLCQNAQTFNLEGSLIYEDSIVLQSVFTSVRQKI
T6 sequence (Q92793 1085-1192 limits assumed): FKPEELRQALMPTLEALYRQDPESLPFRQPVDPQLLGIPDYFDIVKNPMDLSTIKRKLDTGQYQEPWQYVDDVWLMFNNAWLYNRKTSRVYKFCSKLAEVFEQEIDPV

SMILES	BRD9A Tm (BRD9A)	BRPF1B Tm (BRPF1B)	CECR2A Tm (CECR2A)	TΔS (PB1(5) [2])	ΔG (PB1(5) [2])	other results
O=c1nc2n(c3cccc(Cl)c13)CCC2 [Compound 18c, 6-chloro-2,3-dihydropyrrolo[1,2-a]quinazolin-5(1H)-one]	–	–	–	–	–	ΔTm at 10 µM (PB1(5) [1]; [4]): 2.6 ± 0.3 °C
O=c1nc2n(c3cccc(Cl)c13)CC/C2=C\N1CCCCC1 [Compound 24]	–	–	–	4.043 kcal/mol and 4.0 kcal/mol	-9.243 kcal/mol	K × 10^6 (M^–1) (PB1(5) [2]): 7.86 × 10^6 M^–1; BRD4(1) Tm (BRD4(1)): 1.0 °C; CREBBP Tm (CREBBP): 0.0 °C; TRIM33B Tm (TRIM33B): -0.1 °C; DMSO and aqueous solubility (Solubility (qualitative)): greatly improved
CN1CCCN(/C=C2\CCn3c2nc(=O)c2ccccc23)CC1 [Compound 15]	0.0 °C	0.2 °C	0.0 °C	–	–	PB1(5) Tm (Supplementary Table 2) (PB1(5) [1]): 3.5 ± 0.2 °C
CC(C)N(/C=C1\CCn2c1nc(=O)c1ccccc12)C(C)C [Compound 8, (E)-3-((Diisopropylamino)methylene)-2,3-dihydropyrrolo[1,2-a]quinazolin-5(1H)-one]	–	–	–	–	–	PB1(5) ΔTm (PB1(5) [1]; [4]): loss of binding
O=c1nc2n(c3ccccc13)CC/C2=C\N1CCCCC1 [Compound 10, (E)-3-(Piperidin-1-ylmethylene)-2,3-dihydropyrrolo[1,2-a]quinazolin-5(1H)-one]	0.2 °C	0.0 °C	0.1 °C	5.3 kcal/mol and 5.274 kcal/mol	-7.926 kcal/mol	K × 10^6 (M^–1) (PB1(5) [2]): 0.80 × 10^6 M^–1
COc1cccc2c1c(=O)nc1n2CCC1 [Compound 20c]	–	–	–	–	–	ΔTm at 10 µM (PB1(5) [1]; [4]): -0.6 ± 0.5 °C
O=c1nc2n(c3ccccc13)CC/C2=C\N1CCOCC1 [Compound 11]	0.8 °C	0.0 °C	0.1 °C	–	–	–
O=c1nc2n(c3cccc(F)c13)CCC2 [Compound 17c]	–	–	–	–	–	ΔTm at 10 µM (PB1(5) [1]; [4]): -0.1 ± 0.8 °C
CN(C)/C=C1\CCn2c1nc(=O)c1ccccc12 [Compound 5, (E)-3-((Dimethylamino)methylene)-2,3-dihydropyrrolo[1,2-a]quinazolin-5(1H)-one]	0.2 °C	0.1 °C	0.1 °C	–	–	aqueous stability [3]: > 24 h

Now from value to molecule, other results behind:

BRD9A Tm (BRD9A)	BRPF1B Tm (BRPF1B)	CECR2A Tm (CECR2A)	TΔS (PB1(5) [2])	ΔG (PB1(5) [2])	SMILES	other results
0.7 °C	0.2 °C	0.1 °C	–	–	CC(C)(C)OC(=O)N1CCN(/C=C2\CCn3c2nc(=O)c2ccccc23)CC1 [Compound 14]	PB1(5) Tm (Supplementary Table 2) (PB1(5) [1]): 4.7 ± 0.6 °C
–	–	–	2.362 kcal/mol and 2.3 kcal/mol	-9.110 kcal/mol	CCC(/C=C1\CCn2c1nc(=O)c1c(Cl)cccc12)CC [Compound 28]	K×10^6 (M-1) (SMARCA4): 0.49 ×10^6 M-1; TΔS (SMARCA4): 6.446 kcal/mol; ΔG (SMARCA4): -7.620 kcal/mol; ΔH (SMARCA4): -1.174 kcal/mol
1.0 °C	0.0 °C	0.2 °C	4.7 kcal/mol and 4.717 kcal/mol	-7.577 kcal/mol	O=c1nc2n(c3ccccc13)CC/C2=C\N1CCCC1 [Compound 9, (E)-3-(Pyrrolidin-1-ylmethylene)-2,3-dihydropyrrolo[1,2-a]quinazolin-5(1H)-one]	PB1(5) Tm (Supplementary Table 2) (PB1(5) [1]): 4.3 ± 0.4 °C; K × 10^6 (M^–1) (PB1(5) [2]): 0.44 × 10^6 M^–1
